Test results taken from patent US20090253745A1, “MODULATORS OF OCULAR OXIDATIVE STRESS” (SIRION THERAPEUTICS, INC., priority 2007, published 2009).
Entries after “also recorded” stand apart in the source; their conditions may differ.

How the values were obtained:
SOD1 mutant mice = assay: Fluorescein angiography: hypopigmentation and integrity of retinal vessels in SOD1 mutant mice; format: in vivo, mouse
Procedure: FIG. 10. TAPP1 improves integrity of retinal vessels in SOD1 mutant mice. A late stage pathology which has been documented in SOD1 mutant mice is choroidal neovascularization (CNV). This pathology is detected by fluorescein angiography. In this technique, a fluorescent dye (fluorescein) is injected into mice and the flow of this dye through vessels of the retina is monitored using a specialized fundus camera. Leakage of the dye outside the retinal vessels indicates compromised vessel integrity and/or CNV. SOD1 mutant mice (aged 6 months) which have been administered the TAPP1 vehicle (treatment protocol is described above) show a prominent area of dye leakage in the area surrounding the optic disc (indicated by arrow).
A Zeiss FF3 fundus camera with a camera back containing a barrier filter for fluorescein angiography (FA) is used. Animals are placed in a restraint built onto the fundus camera and injected with 25% sodium fluorescein (0.01 ml in sterile saline per 5-6 gm of body weight, i.p.). Immediately following the injection, a timer on the camera back is engaged so that elapsed time in seconds is recorded for each picture. The fluorescein images are recorded on Fujichrome Velvia RVP 100 color slide film.

eyeglobes of mice = assay: Ex vivo lens toxicity test, whole eyeglobes cultured overnight; conditions: overnight incubation, media containing 45% β-cyclodextrin, 37° C.
Procedure: FIG. 3. Ex vivo lens toxicity test of TAPP1. The eyeglobes of mice (aged 42 days) were cultured overnight either with control solution (media containing 45% β-cyclodextrin) or TAPP1 (TAPP1 in media containing 45% β-cyclodextrin), at 37° C. overnight, and in 95% air/5% CO2. […] To determine the effects of TAPP1 on isolated lenses, intact lenses were dissected from wild-type mouse eyeglobes, and incubated in DMEM media in a 96 well tissue culture plate. Groups of 3-6 lenses were incubated in 200 μl of media alone (negative control), 4% (2-hydroxypropyl)-β-cyclodextrin (carrier control), 8 mM hydrogen peroxide (H2O2, positive control for lens toxicity), 4 mM TAPP1-O (free radical form), 4 mM TAPP1-R (reduced form), and 4 mM of the two products of TAPP1-R hydrolysis (HP-1 and HP-2), respectively. β-cyclodextrin was included as a carrier control because all of the stock solutions contained 45% (2-hydroxypropyl)-β-cyclodextrin. The samples were incubated in 5% CO2 incubator at 37 C for 2 days.
The TAPP compositions are intended for topical delivery to the anterior portion of the eye. […] Morphological or anatomical effects are determined by comparison of TAPP-treated samples to samples incubated with either the TAPP vehicle or samples which are exposed (10 min treatment) to 100% ethanol (a positive control for lens toxicity). […]

CC1(C)CC(OC(=O)c2cc(-c3ccncc3)n[nH]2)CC(C)(C)N1[O] [TAPP1, 1-oxyl-2,2,6,6-tetramethylpiperidin-4-yl 3-(pyridin-4-yl)-1H-pyrazole-5-carboxylate]
fluorescein dye leakage around the optic disc (integrity of retinal vessels) (SOD1 mutant mice; SOD1 mutant mice aged 6 months, TAPP1 eye drops versus vehicle): no dye leakage; also recorded: reduced dye leakage | severity of hypopigmentation (SOD1 mutant mice; SOD mutant mice aged 186 days, TAPP1 eye drops): reduces the severity of hypopigmentation | cataract or other overt toxicity in eyeglobes (eyeglobes of mice): no cataract or other overt toxicity
